Tests used:
[1] = target: T1, Human serum albumin (HSA) (Homo sapiens, UniProt P02768); settings: same experimental model, earlier study; cited from earlier work
T1 construct: purchased Merck (Darmstadt, Germany) A1653

CYP3A4 = CYP3A4 (Homo sapiens, UniProt P08684); experiment: cell-based P450-Glo CYP3A4 activity assay in PHHs; type: in vitro ADME; design: human hepatic microsomes (Gibco, Biocenter, Szeged, Hungary); tissue Gibco (Biocenter, Szeged, Hungary); host or cells: human liver microsomes; settings: 100 µM, 24 h
Experimental: To investigate the effects of inhibitor MI-2415 on CYP3A4 activities, a P450-Glo CYP450 assay (Promega, Madison, WI, USA) was used. […] This luminescent method involves adding a cell-permeable Luciferin-IPA at 3 µM, which was used in 300 µL phenol-red free Williams’ Medium E in each well in the CYP3A4 assay with an incubation time of 1 h. The luminescence activity of the product in the presence of the luciferin detection reagent was proportional to the CYP activity. For the microsomal CYP3A4 assay of inhibitors MI-1851 and MI-2415 at 25, 50, and 100 µM (n = 3), BioVision CYP assays (BioVision, Inc., Kampenhout, Belgium) were used according to the manufacturer’s instructions. The protein content of human hepatic microsomes (Gibco, Biocenter, Szeged, Hungary) was determined by the bicinchoninic acid protein assay kit (Pierce BCA kit, Thermo Fisher Scientific, Waltham, MA, USA) and a 100 µg/well protein was used in each study. […] A Victor X2 2030 fluorescence spectrometer (Perkin Elmer, Waltham, MA, USA) was used to detect the fluorescence intensities of the microsomal CYP3A4 function at wavelengths of λex/em = 535/587 nm and it was also applied to detect the luminescence signals of the cell-based CYP3A4 activity assay.

T1 sequence (P02768 25-609): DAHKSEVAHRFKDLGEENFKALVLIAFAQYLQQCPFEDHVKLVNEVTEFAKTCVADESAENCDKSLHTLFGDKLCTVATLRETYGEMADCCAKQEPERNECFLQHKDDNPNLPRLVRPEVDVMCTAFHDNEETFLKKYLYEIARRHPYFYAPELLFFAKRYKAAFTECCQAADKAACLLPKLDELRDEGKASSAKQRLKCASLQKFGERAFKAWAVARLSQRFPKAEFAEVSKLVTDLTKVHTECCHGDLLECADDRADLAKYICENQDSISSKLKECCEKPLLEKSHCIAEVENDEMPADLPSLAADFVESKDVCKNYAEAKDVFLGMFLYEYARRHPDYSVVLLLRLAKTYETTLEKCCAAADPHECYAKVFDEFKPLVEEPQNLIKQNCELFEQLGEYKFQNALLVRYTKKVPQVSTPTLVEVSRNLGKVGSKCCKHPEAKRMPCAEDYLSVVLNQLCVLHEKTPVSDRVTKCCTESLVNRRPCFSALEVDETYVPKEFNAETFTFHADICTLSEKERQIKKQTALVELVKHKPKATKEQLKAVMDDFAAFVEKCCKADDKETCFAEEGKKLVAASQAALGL
Sequence of CYP3A4 (P08684 whole entry): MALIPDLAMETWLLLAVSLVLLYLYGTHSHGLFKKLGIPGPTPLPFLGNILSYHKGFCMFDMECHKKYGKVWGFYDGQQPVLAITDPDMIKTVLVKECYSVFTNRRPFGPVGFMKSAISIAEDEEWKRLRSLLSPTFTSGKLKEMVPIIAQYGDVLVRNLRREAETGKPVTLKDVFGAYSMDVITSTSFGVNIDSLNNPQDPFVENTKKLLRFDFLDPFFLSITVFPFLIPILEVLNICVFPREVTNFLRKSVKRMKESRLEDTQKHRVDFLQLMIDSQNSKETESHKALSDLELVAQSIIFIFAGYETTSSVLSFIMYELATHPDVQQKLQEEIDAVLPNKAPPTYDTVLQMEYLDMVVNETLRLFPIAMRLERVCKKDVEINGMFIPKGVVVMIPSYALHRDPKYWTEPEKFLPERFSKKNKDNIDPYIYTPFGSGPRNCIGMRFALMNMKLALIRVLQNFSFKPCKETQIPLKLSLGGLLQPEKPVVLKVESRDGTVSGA

Row | SMILES | effect on emission signal of HSA [1] | CYP3A4 activity in PHHs (CYP3A4)
1 | CC(C)(C)[C@H](NC(=O)[C@H](CCONC(=N)N)NC(=O)Cc1ccc(CNC(=N)N)cc1)C(=O)N[C@@H](CCONC(=N)N)C(=O)NCc1ccc(C(=N)N)cc1 [MI-1851] | did not affect the emission signal of HSA | –
2 | CC(C)(C)[C@H](NC(=O)[C@H](CCONC(=N)N)NC(=O)Cc1ccc(CNC(=N)N)cc1)C(=O)N[C@@H](CCONC(=N)N)C(=O)NCc1ccc2c(c1)CN=C2N [MI-2415] | – | significantly reduced

From PMC11444200, “In Vitro Evaluation of Antipseudomonal Activity and Safety Profile of Peptidomimetic Furin Inhibitors” (Biomedicines, 2024)
